Source: ChEMBL document CHEMBL5512651, “Synthesis and biological evaluation of 4-imidazolidinone-containing compounds as potent inhibitors of the MDM2/p53 interaction” (Eur J Med Chem, 2024)
Calls of active or inactive are those of the source. No cut-off for these calls is given here.

Legend:
[1] = biological target: Tumour suppressor p53/oncoprotein Mdm2 (Homo sapiens, UniProt Q00987); experiment: Inhibition of MDM2/p53 (unknown origin) interaction by fluorescence polarization assay; format: protein assay
Sequence of Tumour suppressor p53/oncoprotein Mdm2 (P04637 whole entry): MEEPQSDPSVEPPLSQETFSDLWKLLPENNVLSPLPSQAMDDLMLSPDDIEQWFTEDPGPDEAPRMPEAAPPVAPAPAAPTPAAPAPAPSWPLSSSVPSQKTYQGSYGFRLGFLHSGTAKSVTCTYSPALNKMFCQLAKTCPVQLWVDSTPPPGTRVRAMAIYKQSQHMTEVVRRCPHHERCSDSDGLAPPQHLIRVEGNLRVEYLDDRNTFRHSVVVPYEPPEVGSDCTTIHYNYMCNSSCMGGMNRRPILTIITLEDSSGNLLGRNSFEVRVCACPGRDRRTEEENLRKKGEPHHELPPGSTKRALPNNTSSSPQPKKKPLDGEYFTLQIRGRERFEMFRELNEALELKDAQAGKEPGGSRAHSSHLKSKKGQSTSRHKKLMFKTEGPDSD
Sequence of Tumour suppressor p53/oncoprotein Mdm2 (Q00987 whole entry): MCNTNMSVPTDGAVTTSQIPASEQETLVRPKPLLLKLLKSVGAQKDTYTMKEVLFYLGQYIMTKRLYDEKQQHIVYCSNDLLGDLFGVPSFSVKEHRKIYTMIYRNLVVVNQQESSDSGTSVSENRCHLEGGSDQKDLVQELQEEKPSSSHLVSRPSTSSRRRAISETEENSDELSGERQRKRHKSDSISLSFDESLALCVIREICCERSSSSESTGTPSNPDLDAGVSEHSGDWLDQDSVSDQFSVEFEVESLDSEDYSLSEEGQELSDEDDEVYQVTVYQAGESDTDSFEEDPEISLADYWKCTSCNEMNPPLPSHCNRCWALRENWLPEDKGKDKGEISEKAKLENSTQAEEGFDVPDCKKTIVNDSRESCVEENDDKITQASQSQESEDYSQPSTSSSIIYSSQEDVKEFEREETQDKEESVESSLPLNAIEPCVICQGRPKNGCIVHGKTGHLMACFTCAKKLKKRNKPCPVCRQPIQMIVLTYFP

[2] = biological target: Tumour suppressor protein p53/Mdm4 (Homo sapiens, UniProt O15151); experiment: Inhibition of MDM4/p53 (unknown origin) interaction by fluorescence polarization assay; format: protein assay
Sequence of Tumour suppressor protein p53/Mdm4 (P04637 whole entry): as the sequence (P04637 whole entry) above
Sequence of Tumour suppressor protein p53/Mdm4 (O15151 whole entry): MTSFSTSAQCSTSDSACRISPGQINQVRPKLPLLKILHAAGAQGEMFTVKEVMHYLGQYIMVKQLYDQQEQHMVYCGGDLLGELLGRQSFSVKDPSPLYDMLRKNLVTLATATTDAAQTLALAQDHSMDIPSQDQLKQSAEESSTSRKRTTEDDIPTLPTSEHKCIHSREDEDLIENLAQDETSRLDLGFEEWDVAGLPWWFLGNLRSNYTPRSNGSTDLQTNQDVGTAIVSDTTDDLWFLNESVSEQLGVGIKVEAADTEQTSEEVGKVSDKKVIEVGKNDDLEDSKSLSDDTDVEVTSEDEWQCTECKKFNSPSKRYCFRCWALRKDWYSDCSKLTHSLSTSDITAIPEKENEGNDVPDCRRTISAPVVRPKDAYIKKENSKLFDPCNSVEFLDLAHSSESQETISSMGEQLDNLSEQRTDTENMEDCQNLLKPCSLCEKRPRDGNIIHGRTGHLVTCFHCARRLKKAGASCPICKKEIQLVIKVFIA

[3] = biological target: Cellular tumor antigen p53 (Homo sapiens) (UniProt P04637); experiment: Activation of p53 pathway in human MOLM-13 cells assessed as increase in p53 level incubated for 24 hrs by Western blot analysis; format: cell-based; details: filed as activator, dose 0.038-0.6 µM
Sequence of Cellular tumor antigen p53 (Homo sapiens) (P04637 whole entry, looked up): as the sequence (P04637 whole entry) above

[4] = biological target: Cellular tumor antigen p53 (Homo sapiens) (UniProt P04637); experiment: Activation of p53 pathway in human MOLM-13 cells assessed as increase in p21 level incubated for 24 hrs by Western blot analysis; format: cell-based; details: filed as activator, dose 0.038-0.6 µM
MOLM-13 [5] = experiment: Induction of apoptosis in human MOLM-13 cells assessed as increase in PARP cleavage at 0.15 to 0.6 uM incubated for 24 hrs by Western blot analysis; format: functional, cell-based; details: dose 0.15-0.6 µM
[6] = biological target: Cellular tumor antigen p53 (Homo sapiens) (UniProt P04637); experiment: Activation of p53 pathway in human MOLM-13 cells assessed as increase in MDM2 mRNA level incubated for 24 hrs by qPCR analysis; format: cell-based; details: filed as activator, dose 0.038-0.6 µM
[7] = biological target: Cellular tumor antigen p53 (Homo sapiens) (UniProt P04637); experiment: Activation of p53 pathway in human MOLM-13 cells assessed as increase in p21 mRNA level incubated for 24 hrs by qPCR analysis; format: cell-based; details: filed as activator, dose 0.038-0.6 µM
[8] = biological target: Cellular tumor antigen p53 (Homo sapiens) (UniProt P04637); experiment: Activation of p53 pathway in human MOLM-13 cells assessed as increase in PUMA mRNA level incubated for 24 hrs by qPCR analysis; format: cell-based; details: filed as activator, dose 0.038-0.6 µM
MOLM-13 [9] = experiment: Induction of apoptosis in human MOLM-13 cells assessed as viable cells at 0.1 uM incubated for 24 hrs by Annexin V-FITC/PI staining based flow cytometry (reference value: 95.1 %); format: functional; details: read-out: Activity
MOLM-13 [10] = experiment: Induction of apoptosis in human MOLM-13 cells assessed as early apoptotic cells at 0.1 uM incubated for 24 hrs by Annexin V-FITC/PI staining based flow cytometry (reference value: 4.44 %); format: functional
MOLM-13 [11] = experiment: Induction of apoptosis in human MOLM-13 cells assessed as late apoptotic cells at 0.1 uM incubated for 24 hrs by Annexin V-FITC/PI staining based flow cytometry (reference value: 0.457 %); format: functional
MOLM-13 [12] = experiment: Induction of apoptosis in human MOLM-13 cells assessed as necrotic cells at 0.1 uM incubated for 24 hrs by Annexin V-FITC/PI staining based flow cytometry (reference value: 0.020 %); format: functional
MOLM-13 [13] = experiment: Induction of apoptosis in human MOLM-13 cells assessed as viable cells at 0.3 uM incubated for 24 hrs by Annexin V-FITC/PI staining based flow cytometry (reference value: 95.1 %); format: functional; details: read-out: Activity
MOLM-13 [14] = experiment: Induction of apoptosis in human MOLM-13 cells assessed as early apoptotic cells at 0.3 uM incubated for 24 hrs by Annexin V-FITC/PI staining based flow cytometry (reference value: 4.44 %); format: functional
MOLM-13 [15] = experiment: Induction of apoptosis in human MOLM-13 cells assessed as late apoptotic cells at 0.3 uM incubated for 24 hrs by Annexin V-FITC/PI staining based flow cytometry (reference value: 0.457 %); format: functional
MOLM-13 [16] = experiment: Induction of apoptosis in human MOLM-13 cells assessed as necrotic cells at 0.3 uM incubated for 24 hrs by Annexin V-FITC/PI staining based flow cytometry (reference value: 0.020 %); format: functional
MOLM-13 [17] = experiment: Induction of apoptosis in human MOLM-13 cells assessed as early apoptotic cells at 0.9 uM incubated for 24 hrs by Annexin V-FITC/PI staining based flow cytometry (reference value: 4.44 %); format: functional
MOLM-13 [18] = experiment: Induction of apoptosis in human MOLM-13 cells assessed as necrotic cells at 0.9 uM incubated for 24 hrs by Annexin V-FITC/PI staining based flow cytometry (reference value: 0.020 %); format: functional
MOLM-13 [19] = experiment: Induction of apoptosis in human MOLM-13 cells assessed as viable cells at 2.7 uM incubated for 24 hrs by Annexin V-FITC/PI staining based flow cytometry (reference value: 95.1 %); format: functional; details: read-out: Activity
MOLM-13 [20] = experiment: Induction of apoptosis in human MOLM-13 cells assessed as early apoptotic cells at 2.7 uM incubated for 24 hrs by Annexin V-FITC/PI staining based flow cytometry (reference value: 4.44 %); format: functional
MOLM-13 [21] = experiment: Induction of apoptosis in human MOLM-13 cells assessed as late apoptotic cells at 2.7 uM incubated for 24 hrs by Annexin V-FITC/PI staining based flow cytometry (reference value: 0.457 %); format: functional
MOLM-13 [22] = experiment: Induction of apoptosis in human MOLM-13 cells assessed as necrotic cells at 2.7 uM incubated for 24 hrs by Annexin V-FITC/PI staining based flow cytometry (reference value: 0.020 %); format: functional
MOLM-13 [23] = experiment: Induction of apoptosis in human MOLM-13 cells assessed as viable cells at 8.1 uM incubated for 24 hrs by Annexin V-FITC/PI staining based flow cytometry (reference value: 95.1 %); format: functional; details: read-out: Activity
MOLM-13 [24] = experiment: Induction of apoptosis in human MOLM-13 cells assessed as early apoptotic cells at 8.1 uM incubated for 24 hrs by Annexin V-FITC/PI staining based flow cytometry (reference value: 4.44 %); format: functional
MOLM-13 [25] = experiment: Induction of apoptosis in human MOLM-13 cells assessed as late apoptotic cells at 8.1 uM incubated for 24 hrs by Annexin V-FITC/PI staining based flow cytometry (reference value: 0.457 %); format: functional
MOLM-13 [26] = experiment: Induction of apoptosis in human MOLM-13 cells assessed as viable cells at 24.3 uM incubated for 24 hrs by Annexin V-FITC/PI staining based flow cytometry (reference value: 95.1 %); format: functional; details: read-out: Activity
MOLM-13 [27] = experiment: Induction of apoptosis in human MOLM-13 cells assessed as late apoptotic cells at 24.3 uM incubated for 24 hrs by Annexin V-FITC/PI staining based flow cytometry (reference value: 0.457 %); format: functional
[28] = Selectivity index, ratio of IC50 for HEK293 cells to IC50 for human HeLa cells; format: toxicity; details: HEK293 cells versus HeLa cells, read-out: Ratio IC50
[29] = biological target: Cellular tumor antigen p53 (Homo sapiens) (UniProt P04637); experiment: Activation of p53 pathway in human HCT-116 cells assessed as increase in p53 level at 1 uM incubated for 24 hrs by Western blot analysis; format: cell-based; details: filed as activator
[30] = biological target: Cellular tumor antigen p53 (Homo sapiens) (UniProt P04637); experiment: Activation of p53 pathway in human HCT-116 cells assessed as increase in p21 level at 1 uM incubated for 24 hrs by Western blot analysis; format: cell-based; details: filed as activator
[31] = biological target: Cellular tumor antigen p53 (Homo sapiens) (UniProt P04637); experiment: Activation of p53 pathway in human HeLa cells assessed as increase in MDM2 level at 1 uM incubated for 24 hrs by Western blot analysis; format: cell-based
[32] = biological target: Cellular tumor antigen p53 (Homo sapiens) (UniProt P04637); experiment: Activation of p53 pathway in human HeLa cells assessed as increase in p21 level at 1 uM incubated for 24 hrs by Western blot analysis; format: cell-based
HCT-116 = experiment: cells; details: Homo sapiens, HCT-116, 96 h
MOLM-13 [33] = experiment: cells; details: Homo sapiens, MOLM-13, 48 h
HeLa = experiment: cells; details: Homo sapiens, 96 h
SW480 = experiment: cells; details: Homo sapiens, SW480, 96 h

COc1cc(C(=O)O)ccc1N1CN2[C@@H](CC(C)(C)C)[C@@]3(CNc4cc(Cl)ccc43)[C@@H](c3cccc(Cl)c3)[C@@H]2C1=O
Ki [1]: 0.4 nM | Ki [2]: > 27000 nM | Activity [3]: Dose-Dependent Effect | Activity [4]: Dose-Dependent Effect | Activity (MOLM-13 [5]): Active | Activity [6]: Dose-Dependent Effect | Activity [7]: Dose-Dependent Effect | Activity [8]: Dose-Dependent Effect | viability at 0.1 µM (MOLM-13 [9]): 83.8% | Activity (MOLM-13 [10]): 15.2% | Activity (MOLM-13 [11]): 0.797% | Activity (MOLM-13 [12]): 0.124% | viability at 0.3 µM (MOLM-13 [13]): 74.5% | Activity (MOLM-13 [14]): 24.4% | Activity (MOLM-13 [15]): 0.998% | Activity (MOLM-13 [16]): 0.179% | Activity (MOLM-13 [17]): 48.8% | Activity (MOLM-13 [18]): 0.119% | viability at 2.7 µM (MOLM-13 [19]): 30.1% | Activity (MOLM-13 [20]): 68.6% | Activity (MOLM-13 [21]): 1.18% | Activity (MOLM-13 [22]): 0.125% | viability at 8.1 µM (MOLM-13 [23]): 27.4% | Activity (MOLM-13 [24]): 71% | Activity (MOLM-13 [25]): 1.41% | viability at 24.3 µM (MOLM-13 [26]): 8.63% | Activity (MOLM-13 [27]): 1.96% | selectivity ratio [28]: 0.8 | Activity [29]: Active | Activity [30]: Active | Activity [31]: inactive | Activity [32]: inactive | IC50 (HCT-116): 28.1 nM | IC50 (MOLM-13 [33]): 0.8 nM | IC50 (HeLa): 12400 nM | IC50 (SW480): 5940 nM
